Assays:
[1] = tested on: K562 cell line; experiment: MTS assay with CalcuSyn combination index, leukemia; type: cell-based; settings: Homo sapiens, K562, read-out: IC50 (Molar)
Method: (§1) These cell lines were cultured in RPMI1640 medium with 10% FBS and 2 mM L-Glutamine. Each cell line was plated in a 96 well plates at 20,000 cell per well.
(§2) Each serial dilution was paired with 4 different concentrations of Idarubicin.
(§3) The plates were incubated for 3 days at 37° C. and 5% CO2. The plates were read using the Promega MTS assay system with MTS being metabolized by living cells turning into formazan which is […] at 490 nm wavelength. This is an indirect measure of cell viability. These were analyzed using the Softmax Pro program which determines cell viability based percent of control wells. This IC50 data was then transferred into the CalcuSyn program for combination index analysis. CalcuSyn compares IC50 the values of the drugs alone with that of the drugs in combination using an algorithm to determine a combination index.

[2] = tested on: MOLT4 cell line; experiment: as above; type: cell-based; settings: Homo sapiens, MOLT-4, read-out: IC50 (Molar)
Method: as §1, §2, §3

**Q.** `CC(=O)[C@]1(O)Cc2c(O)c3c(c(O)c2[C@@H](O[C@H]2C[C@H](N)[C@H](O)[C@H](C)O2)C1)C(=O)c1ccccc1C3=O` [Idarubicin] was tested. Which IC50 [1] did it give?
**A.** The IC50 was 63.3 nM.

**Q.** What about the IC50 [2] of the same compound?
**A.** The IC50 was 0.05 nM.

From US8258098B2, “Antitumoral treatments” (Pharma Mar, S.A., priority 2006, dated 2012)
